Measured values taken from US5695970A, “Glucan lyase producing 1,5-anhydrofructose” (priority 1992, dated 1997).

Key:
Assay type in all cases: biochemical, Gracilariopsis lemaneiformis
[1] = tested on: α-1,4-glucan lyase; test: Substrate specificity of α-1,4-glucan lyase (release of 1,5-anhydrofructose, DNS method, 15 min); details: for substrate inhibition: higher substrate concentrations, 10 mg ml^-1 compared with 2 and 4 mg ml^-1; for Activity (% of Maltoheptaose): incubation 15 min
Description: When amylopectin was used as a substrate, the activity reached maximum 8 mg ml^-1 and then decreased slightly at 20 mg ml^-1. The same results were obtained with soluble starch and maltoheptaose. When maltotriose and maltose were used as substrates, the activity reached maximum at 2 mg ml^-1 and 6 mg ml^-1, respectively. Substrate inhibition became evident at higher concentrations, especially in the case of maltotriose. […] Generally, the inhibition degree decreased with the increase in DP number (Degree of Polymerization). When the activity measured at 10 mg ml^-1 was compared at 2 mg ml^-1 and 4 mg ml^-1, substrate inhibition could be clearly seen among the maltosaccharides of DP 3-5. In maltohexaose, the substrate inhibition was very low and was none in maltoheptaose. Among the maltosaccharides, maltotetraose and maltopentaose were the poorest substrates.
With PNPG1 (p-nitrophenyl-α-D-glucoside), the artificial substrate of α-glucosidase, reaction rate was the lowest.
Substrate Specificity of α-1,4-Glucan lyase.
The concentration of various substrates in the reaction mixture
was 10 mg ml^-1 except PNPG1, PNPG2, PNPG7, which was 2 mM.
The incubation time was 15 min. The degrading rate of maltoheptaose
was 84 μmol min^-1. mg^-1 protein.
(§1) The reaction mixture for the assay of α-1,4-glucan lyase was composed of 240 μl 62.5 mM Mops-NaOH containing 6 mg soluble starch (pH 6.2), the enzyme preparation and distilled water to a final volume of 300 μl. The reaction was carried out at 30° C. for 10-30 min. Liberated 1,5-anhydrofructose was determined by monitoring the absorbance at 546 nm after the addition of 3,5-dinitrosalicylic acid reagent. Soluble starch in the reaction mixture may be replaced by other substrates and the final substrate concentration may be varied as indicated in the text. The reaction time and enzyme concentration used in enzyme activity assay have been chosen to ensure the linearity of the reaction rate. One unit of α-1,4-glucan lyase activity is defined as the amount of enzyme which liberates 1μmol of 1,5-anhydrofructose min^-1 under the conditions described above.

[2] = tested on: α-1,4-glucan lyase; test: Substrate specificity of α-1,4-glucan lyase, long term incubation (24 h), continuation of Table IV; details: for release of 1,5-anhydrofructose and glucose checked by TLC on Silica gel 60: after 24 h of incubation; for Product released: 1.64 μg enzyme, 24 h
Description: The incubation time was 24 h.
as §1

[3] = tested on: α-1,4-glucan lyase; test: Inhibition studies of α-1,4-glucan lyase activity; details: for inhibition of enzymic activity: 0.1M
Description: as §1

[4] = tested on: α-1,4-glucan lyase; test: Reaction mode: complete degradation of substrates by the lyase and final products
Description: In an enzyme concentration of 6 μg protein per ml, at 30° C., the time needed for a complete degradation of 1% maltose solution was 1 h, for 2% maltose solution, 3 h, for 5% maltose solution, 10-24 h, for 2% maltoheptaose, 10-24 h. This is in sharp contrast to many polysaccharides' depolymerization enzymes, whose reaction stops with the accumulation of products or with the decrease in substrate size.
When maltoheptaose was used as a substrate, the final products are 1,5-anhydrofructose and glucose and their ratio is 6:1. The intermediate products are a mixture of maltosaccharides with a DP number between 2-6 during the process of the reaction. With the increase of reaction time, the DP number of the maltosaccharides decreased and finally all the maltosaccharides disappeared. When maltose was used as a substrate, the ratio of 1,5-anhydrofructose to glucose was 1:1. With the increase of DP number, the yield of glucose decreased, while the yield of 1,5-anhydrofructose increased. When a linear chain of a α-1,4-glucan is long enough, the yield of 1,5-anhydrofructose can be nearly 100%.

| Compound | Activity (% of Maltoheptaose) ([1]; substrate 10 mg ml^-1) | inhibition of enzymic activity ([3]; amylopectin as substrate) | inhibition of enzymic activity ([3]; maltose as substrate) | release of 1,5-anhydrofructose and glucose checked by TLC on Silica gel 60 [2] | other results |
| --- | --- | --- | --- | --- | --- |
| OC[C@H]1O[C@H](O[C@H]2[C@H](O)[C@@H](O)[C@@H](O[C@H]3[C@H](O)[C@@H](O)[C@@H](O[C@H]4[C@H](O)[C@@H](O)[C@@H](O[C@H]5[C@H](O)[C@@H](O)[C@@H](O[C@H]6[C@H](O)[C@@H](O)C(O)O[C@@H]6CO)O[C@@H]5CO)O[C@@H]4CO)O[C@@H]3CO)O[C@@H]2CO)[C@H](O)[C@@H](O)[C@@H]1O (stereo partly shown) [Maltohexaose, maltohexaose] | 74.6% | – | – | – | substrate inhibition [1]: very low |
| OC[C@H]1O[C@H](O[C@H]2[C@H](O)[C@@H](O)[C@@H](O[C@H]3[C@H](O)[C@@H](O)[C@@H](O[C@H]4[C@H](O)[C@@H](O)[C@@H](O[C@H]5[C@H](O)[C@@H](O)C(O)O[C@@H]5CO)O[C@@H]4CO)O[C@@H]3CO)O[C@@H]2CO)[C@H](O)[C@@H](O)[C@@H]1O (stereo partly shown) [Maltopentaose, maltopentaose] | 36.6% | – | – | – | substrate inhibition [1]: showed substrate inhibition |
| O=[N+]([O-])c1ccc(O[C@H]2O[C@H](CO)[C@@H](O[C@H]3O[C@H](CO)[C@@H](O[C@H]4O[C@H](CO)[C@@H](O[C@H]5O[C@H](CO)[C@@H](O[C@H]6O[C@H](CO)[C@@H](O[C@H]7O[C@H](CO)[C@@H](O[C@H]8O[C@H](CO)[C@@H](O)[C@H](O)[C@H]8O)[C@H](O)[C@H]7O)[C@H](O)[C@H]6O)[C@H](O)[C@H]5O)[C@H](O)[C@H]4O)[C@H](O)[C@H]3O)[C@H](O)[C@H]2O)cc1 [PNPG7, p-nitrophenyl-α-D-maltoheptaoside] | – | – | – | – | Activity (% of Maltoheptaose) ([1]; substrate 2 mM): 100.0% |
| OC[C@H]1O[C@H](O[C@H]2[C@H](O)[C@@H](O)[C@@H](O[C@H]3[C@H](O)[C@@H](O)C(O)O[C@@H]3CO)O[C@@H]2CO)[C@H](O)[C@@H](O)[C@@H]1O (stereo partly shown) [Maltotriose, maltotriose] | 39.1% | – | – | – | substrate concentration at which the activity reached maximum [1]: 2 mg/mL; substrate inhibition [1]: showed substrate inhibition |
| CO[C@H]1O[C@H](CO)[C@@H](O)[C@H](O)[C@H]1O [Methyl α-D-glucoside, methyl α-D-glucoside] | – | – | – | No 1,5-anhydrofructose and glucose were released | Product released ([2]; substrate 10 mM): 0 nmol; inhibitory effect on the enzyme activity ([3]; 12 mM, maltose as substrate): no inhibitory effect; inhibitory effect on the enzyme activity ([3]; 12 mM, soluble starch as substrate): no inhibitory effect |
| OC[C@H]1O[C@H](OC[C@H]2OC(O)[C@H](O)[C@@H](O)[C@@H]2O)[C@H](O)[C@@H](O)[C@H]1O (stereo partly shown) [Melibiose, melibiose] | – | no inhibition | no inhibition | No 1,5-anhydrofructose and glucose were released | Product released ([2]; substrate 10 mg ml^-1): 0 nmol |
| OC[C@@H](O)[C@@H](O[C@H]1O[C@H](CO)[C@@H](O)[C@H](O)[C@H]1O)[C@H](O)[C@@H](O)CO [Maltitol, maltitol] | – | ~27% | around 47% | – | Product released ([2]; substrate 4 mg ml^-1): 122.4 nmol; type of inhibition ([3]; maltose as substrate): competitive; inhibition of the algal enzyme (in words) ([3]; summary statement, maltose as substrate): inhibited |
| O=[N+]([O-])c1ccc(O[C@H]2O[C@H](CO)[C@@H](O[C@H]3O[C@H](CO)[C@@H](O)[C@H](O)[C@H]3O)[C@H](O)[C@H]2O)cc1 [PNPG2, p-nitrophenyl-α-D-maltoside] | – | – | – | – | Activity (% of Maltoheptaose) ([1]; substrate 2 mM): 22.5% |
| O=[N+]([O-])c1ccc(O[C@H]2O[C@H](CO)[C@@H](O)[C@H](O)[C@H]2O)cc1 [PNPG1, p-nitrophenyl-α-D-glucoside] | – | – | – | – | Activity (% of Maltoheptaose) ([1]; substrate 2 mM): 0.113% |
| OC[C@H]1O[C@@H]2O[C@H]3[C@H](O)[C@@H](O)[C@@H](O[C@H]4[C@H](O)[C@@H](O)[C@@H](O[C@H]5[C@H](O)[C@@H](O)[C@@H](O[C@H]6[C@H](O)[C@@H](O)[C@@H](O[C@H]7[C@H](O)[C@@H](O)[C@@H](O[C@H]1[C@H](O)[C@H]2O)O[C@@H]7CO)O[C@@H]6CO)O[C@@H]5CO)O[C@@H]4CO)O[C@@H]3CO [Cyclohexaamylose, cyclohexaamylose] | – | – | – | No 1,5-anhydrofructose and glucose were released | Product released ([2]; substrate 20 mM): 0 nmol; inhibitory effect on the enzyme activity ([3]; 4 mM, maltose as substrate): no inhibitory effect; inhibitory effect on the enzyme activity ([3]; 4 mM, soluble starch as substrate): no inhibitory effect |
| OC[C@H]1O[C@@H](O[C@H]2[C@H](O)[C@@H](O)C(O)O[C@@H]2CO)[C@H](O)[C@@H](O)[C@H]1O (stereo partly shown) [Lactose, lactose] | – | no inhibition | no inhibition | No 1,5-anhydrofructose and glucose were released | Product released ([2]; substrate 10 mg ml^-1): 0 nmol |

Continued, in another order:

| Activity (% of Maltoheptaose) ([1]; substrate 10 mg ml^-1) | inhibition of enzymic activity ([3]; amylopectin as substrate) | inhibition of enzymic activity ([3]; maltose as substrate) | Compound | release of 1,5-anhydrofructose and glucose checked by TLC on Silica gel 60 [2] | other results |
| --- | --- | --- | --- | --- | --- |
| 100.4% | – | – | amylose | – | – |
| – | no inhibition | no inhibition | OC[C@H]1O[C@H](O[C@H]2O[C@H](CO)[C@@H](O)[C@H](O)[C@H]2O)[C@H](O)[C@@H](O)[C@@H]1O [Trehalose, trehalose] | No 1,5-anhydrofructose and glucose were released | Product released ([2]; substrate 10 mg ml^-1): 0 nmol |
| – | no inhibition | no inhibition | OC[C@H]1OC(O)[C@@H](O)[C@@H](O)[C@@H]1O (stereo partly shown) [mannose] | – | conversion of monosaccharide to 1,5-anhydrofructose by the lyase [4]: can not convert |
| 100.2% | – | – | soluble starch | – | – |
| 61.9% | – | – | floridean starch | – | – |
| – | no inhibition | no inhibition | OC[C@H]1O[C@@](CO)(O[C@H]2O[C@H](CO)[C@@H](O)[C@H](O)[C@H]2O)[C@@H](O)[C@@H]1O [Sucrose, sucrose] | No 1,5-anhydrofructose and glucose were released | Product released ([2]; substrate 10 mg ml^-1): 0 nmol |
| – | no inhibition | no inhibition | OC[C@H]1OC(O)[C@H](O)[C@@H](O)[C@H]1O (stereo partly shown) [galactose] | – | conversion of monosaccharide to 1,5-anhydrofructose by the lyase [4]: can not convert |
| 22.7% | – | – | β-limit dextrin | – | – |
| – | no inhibition | no inhibition | O=C(CO)[C@@H](O)[C@H](O)[C@H](O)CO [fructose] | – | conversion of monosaccharide to 1,5-anhydrofructose by the lyase [4]: can not convert |
